Source: patent US11413292B2, “Tricyclic heterocycle compounds useful as HIV integrase inhibitors” (Merck Sharp & Dohme Corp., priority 2018, dated 2022)
Like-named read-outs stand apart in the source and are kept apart here.

Tested on: HIV-1 (H9/IIIB strain) virus
Experiment: microbe, parasite or virus in culture
Assay type: cell-based
Conditions: MT4-GFP cells infected with HIV-1 H9/IIIB, inhibition of reproductive ratio
[1] = 100% normal human serum (NHS) condition, read-out: Viking, IC50 (100% NHS)
[2] = Human immunodeficiency virus 1, IIIB, 0% NHS condition (RPMI 1640), read-out: Viking, IC50 (0% NHS)
[3] = 0% NHS condition (RPMI 1640), read-out: Viking, IC50 (0% NHS)
[4] = 100% normal human serum (NHS) condition, 2,2,2-trifluoroacetate, read-out: Viking, IC50 (100% NHS)

With `O=C(NCc1c(F)cc(F)cc1F)c1cn2c(c(O)c1=O)C(=O)N1CCCCCN2C1` (single isomer, unassigned) [Example 1A, 9-hydroxy-8,10-dioxo-N-(2,4,6-trifluorobenzyl)-3,4,5,6,8,10-hexahydro-2H-1,7-methanopyrido[1,2-b][1,2,5]triazecine-11-carboxamide] the IC50 [1] was 2.56 µM and the IC50 [2] was 0.00198 µM.
`O=C(NCc1c(F)cc(F)cc1F)c1cn2c(c(O)c1=O)C(=O)N1CCCCCN2C1` (single isomer, unassigned) [Example 1B, 9-hydroxy-8,10-dioxo-N-(2,4,6-trifluorobenzyl)-3,4,5,6,8,10-hexahydro-2H-1,7-methanopyrido[1,2-b][1,2,5]triazecine-11-carboxamide] showed an IC50 [3] of 0.001 µM and an IC50 [1] of 0.0947 µM.
In the case of `O=C(NCc1ccc(F)cc1F)c1cn2c(c(O)c1=O)C(=O)N1CCCCCCN2C1` (single isomer, unassigned) [Example 3A, N-(2,4-difluorobenzyl)-10-hydroxy-9,11-dioxo-2,3,4,5,6,7,9,11-octahydro-1,8-methanopyrido[1,2-b][1,2,5]triazacycloundecine-12-carboxamide], the IC50 [1] is reported as 0.589 µM and the IC50 [2] is reported as 0.00266 µM.
In the case of `O=C(NCc1ccc(F)cc1F)c1cn2c(c(O)c1=O)C(=O)N1CCCCCCN2C1` (single isomer, unassigned) [Example 3B, N-(2,4-difluorobenzyl)-10-hydroxy-9,11-dioxo-2,3,4,5,6,7,9,11-octahydro-1,8-methanopyrido[1,2-b][1,2,5]triazacycloundecine-12-carboxamide], the IC50 [3] is reported as 0.00523 µM and the IC50 [1] is reported as 1.89 µM.
`O=C(NCc1ccc(F)cc1F)c1cn2c(c(O)c1=O)C(=O)N1CCOCCN2C1` (single isomer, unassigned) [Example 4A, N-(2,4-difluorobenzyl)-9-hydroxy-8,10-dioxo-2,3,5,6,8,10-hexahydro-1,7-methanopyrido[1,2-e][1,4,5,8]oxatriazecine-11-carboxamide] gave an IC50 [3] of 0.00345 µM and an IC50 [1] of 9.52 µM.
Work on `O=C(NCc1ccc(F)cc1F)c1cn2c(c(O)c1=O)C(=O)N1CCOCCN2C1` (single isomer, unassigned) [Example 4B, N-(2,4-difluorobenzyl)-9-hydroxy-8,10-dioxo-2,3,5,6,8,10-hexahydro-1,7-methanopyrido[1,2-e][1,4,5,8]oxatriazecine-11-carboxamide] yielded an IC50 [1] of 0.197 µM and an IC50 [2] of 0.00178 µM.
With `COC1CCN2CN(CC1)n1cc(C(=O)NCc3c(F)cc(F)cc3F)c(=O)c(O)c1C2=O` (single isomer, unassigned) [Example 5A, 9-hydroxy-4-methoxy-8,10-dioxo-N-(2,4,6-trifluorobenzyl)-3,4,5,6,8,10-hexahydro-2H-1,7-methanopyrido[1,2-b][1,2,5]triazecine-11-carboxamide] the IC50 [3] was 0.0032 µM and the IC50 [1] was 0.0672 µM.
`COC1CCN2CN(CC1)n1cc(C(=O)NCc3c(F)cc(F)cc3F)c(=O)c(O)c1C2=O` (single isomer, unassigned) [Example 5B, 9-hydroxy-4-methoxy-8,10-dioxo-N-(2,4,6-trifluorobenzyl)-3,4,5,6,8,10-hexahydro-2H-1,7-methanopyrido[1,2-b][1,2,5]triazecine-11-carboxamide] showed an IC50 [3] of 0.00193 µM and an IC50 [1] of 0.124 µM.
`COC1CCN2CN(CC1)n1cc(C(=O)NCc3c(F)cc(F)cc3F)c(=O)c(O)c1C2=O` (single isomer, unassigned) [Example 5C, 9-hydroxy-4-methoxy-8,10-dioxo-N-(2,4,6-trifluorobenzyl)-3,4,5,6,8,10-hexahydro-2H-1,7-methanopyrido[1,2-b][1,2,5]triazecine-11-carboxamide] gave an IC50 [3] of 0.00168 µM and an IC50 [1] of 0.0628 µM.
`COC1CCN2CN(CC1)n1cc(C(=O)NCc3c(F)cc(F)cc3F)c(=O)c(O)c1C2=O` (single isomer, unassigned) [Example 5D, 9-hydroxy-4-methoxy-8,10-dioxo-N-(2,4,6-trifluorobenzyl)-3,4,5,6,8,10-hexahydro-2H-1,7-methanopyrido[1,2-b][1,2,5]triazecine-11-carboxamide] showed an IC50 [3] of 0.00532 µM and an IC50 [1] of 0.543 µM.
Compound `CN1CCN2CN(CC1)n1cc(C(=O)NCc3c(F)cc(F)cc3F)c(=O)c(O)c1C2=O` (single isomer, unassigned) [Example 6A, 9-hydroxy-4-methyl-8,10-dioxo-N-(2,4,6-trifluorobenzyl)-3,4,5,6,8,10-hexahydro-2H-1,7-methanopyrido[1,2-b][1,2,5,8]tetrazecine-11-carboxamide 2,2,2-trifluoroacetate] has an IC50 [4] of 0.169 µM and an IC50 [2] of 0.00464 µM.
For `CN1CCN2CN(CC1)n1cc(C(=O)NCc3c(F)cc(F)cc3F)c(=O)c(O)c1C2=O` (single isomer, unassigned) [Example 6B, 9-hydroxy-4-methyl-8,10-dioxo-N-(2,4,6-trifluorobenzyl)-3,4,5,6,8,10-hexahydro-2H-1,7-methanopyrido[1,2-b][1,2,5,8]tetrazecine-11-carboxamide 2,2,2-trifluoroacetate], the IC50 (0% NHS condition (RPMI 1640), 2,2,2-trifluoroacetate, read-out: Viking, IC50 (0% NHS)) was 0.0024 µM and the IC50 [4] was 0.0802 µM.
Compound `O=C(NCc1c(F)cc(F)cc1F)c1cn2c(c(O)c1=O)C(=O)N1CCC(F)(F)CCN2C1` (single isomer, unassigned) [Example 7A, 4,4-difluoro-9-hydroxy-8,10-dioxo-N-(2,4,6-trifluorobenzyl)-3,4,5,6,8,10-hexahydro-2H-1,7-methanopyrido[1,2-b][1,2,5]triazecine-11-carboxamide] has an IC50 [3] of 0.0061 µM and an IC50 [1] of 4.46 µM.
`O=C(NCc1c(F)cc(F)cc1F)c1cn2c(c(O)c1=O)C(=O)N1CCC(F)(F)CCN2C1` (single isomer, unassigned) [Example 7B, 4,4-difluoro-9-hydroxy-8,10-dioxo-N-(2,4,6-trifluorobenzyl)-3,4,5,6,8,10-hexahydro-2H-1,7-methanopyrido[1,2-b][1,2,5]triazecine-11-carboxamide] was tested, and the IC50 [3] was 0.00216 µM and the IC50 [1] was 0.0739 µM.
`O=C(NCc1c(F)cc(F)cc1F)c1cn2c(c(O)c1=O)C(=O)N1CCC(O)CCN2C1` (single isomer, unassigned) [Example 17A] showed an IC50 [3] of 0.0661 µM and an IC50 [1] of 1.27 µM.
`O=C(NCc1c(F)cc(F)cc1F)c1cn2c(c(O)c1=O)C(=O)N1CCC(O)CCN2C1` (single isomer, unassigned) [Example 17B] gave an IC50 [3] of 0.0076 µM and an IC50 [1] of 0.275 µM.
In the case of `O=C(NCc1c(F)cc(F)cc1F)c1cn2c(c(O)c1=O)C(=O)N1CCC(O)CCN2C1` (single isomer, unassigned) [Example 17C], the IC50 [3] is reported as 0.184 µM and the IC50 [1] is reported as 5.92 µM.
`O=C(NCc1c(F)cc(F)cc1F)c1cn2c(c(O)c1=O)C(=O)N1CCC(O)CCN2C1` (single isomer, unassigned) [Example 17D] gave an IC50 [3] of 0.0256 µM and an IC50 [1] of 0.717 µM.
With `COC1CCN2CN(CC1)n1cc(C(=O)NCc3cccc(Cl)c3F)c(=O)c(O)c1C2=O` (single isomer, unassigned) [Example 18A] the IC50 [3] was 0.0031 µM and the IC50 [1] was 0.279 µM.
`COC1CCN2CN(CC1)n1cc(C(=O)NCc3cccc(Cl)c3F)c(=O)c(O)c1C2=O` (single isomer, unassigned) [Example 18B] gave an IC50 [3] of 0.0025 µM and an IC50 [1] of 0.435 µM.
`COC1CCN2CN(CC1)n1cc(C(=O)NCc3cccc(Cl)c3F)c(=O)c(O)c1C2=O` (single isomer, unassigned) [Example 18C] showed an IC50 [3] of 0.0032 µM and an IC50 [1] of 1.87 µM.
With `COC1CCN2CN(CC1)n1cc(C(=O)NCc3cccc(Cl)c3F)c(=O)c(O)c1C2=O` (single isomer, unassigned) [Example 18D] the IC50 [3] was 0.0015 µM and the IC50 [1] was 0.23 µM.
Work on `COC1CCN2CN(CC1)n1cc(C(=O)NCc3c(F)ccc(Cl)c3F)c(=O)c(O)c1C2=O` (single isomer, unassigned) [Example 19A] yielded an IC50 [3] of 0.0018 µM and an IC50 [1] of 0.116 µM.
`COC1CCN2CN(CC1)n1cc(C(=O)NCc3c(F)ccc(Cl)c3F)c(=O)c(O)c1C2=O` (single isomer, unassigned) [Example 19B] gave an IC50 [3] of 0.0053 µM and an IC50 [1] of 1.88 µM.
Work on `COC1CCN2CN(CC1)n1cc(C(=O)NCc3c(F)ccc(Cl)c3F)c(=O)c(O)c1C2=O` (single isomer, unassigned) [Example 19C] yielded an IC50 [3] of 0.0035 µM and an IC50 [1] of 0.245 µM.
For `COC1CCN2CN(CC1)n1cc(C(=O)NCc3c(F)ccc(Cl)c3F)c(=O)c(O)c1C2=O` (single isomer, unassigned) [Example 19D], the IC50 [3] was 0.0015 µM and the IC50 [1] was 0.3 µM.
`COC1CCN2CN(CC1)n1cc(C(=O)NCc3ccc(F)cc3F)c(=O)c(O)c1C2=O` (single isomer, unassigned) [Example 20A] gave an IC50 [3] of 0.0033 µM and an IC50 [1] of 0.088 µM.
`COC1CCN2CN(CC1)n1cc(C(=O)NCc3ccc(F)cc3F)c(=O)c(O)c1C2=O` (single isomer, unassigned) [Example 20B] showed an IC50 [3] of 0.0028 µM and an IC50 [1] of 0.371 µM.
Compound `COC1CCN2CN(CC1)n1cc(C(=O)NCc3ccc(F)cc3F)c(=O)c(O)c1C2=O` (single isomer, unassigned) [Example 20C] has an IC50 [3] of 0.0075 µM and an IC50 [1] of 0.606 µM.
`COC1CCN2CN(CC1)n1cc(C(=O)NCc3ccc(F)cc3F)c(=O)c(O)c1C2=O` (single isomer, unassigned) [Example 20D] showed an IC50 [3] of 0.0021 µM and an IC50 [1] of 0.212 µM.
For `COC1CCN2CN(CC1)n1cc(C(=O)NCc3ccc(F)c(Cl)c3F)c(=O)c(O)c1C2=O` (single isomer, unassigned) [Example 21A], the IC50 [3] was 0.0025 µM and the IC50 [1] was 2.52 µM.
With `COC1CCN2CN(CC1)n1cc(C(=O)NCc3ccc(F)c(Cl)c3F)c(=O)c(O)c1C2=O` (single isomer, unassigned) [Example 21B] the IC50 [3] was 0.0009 µM and the IC50 [1] was 0.207 µM.
In the case of `COC1CCN2CN(CC1)n1cc(C(=O)NCc3ccc(F)c(Cl)c3F)c(=O)c(O)c1C2=O` (single isomer, unassigned) [Example 21C], the IC50 [3] is reported as 0.0017 µM and the IC50 [1] is reported as 0.311 µM.
